Literature values, collected in patent US7208498B2, “Piperidino pyrimidine dipeptidyl peptidase inhibitors for the treatment of diabetes” (Merck & Co., Inc., priority 2002, dated 2007).

Legend:
hematopoiesis = conditions: mouse, cyclophosphamide-induced neutropenia; WO 99/56753
cardiac allograft = conditions: rats; Transplantation 63, 1495–1500 (1997)

In the case of `CC(C)[C@H](N)C(=O)N1CCC[C@H]1B(O)O` [Val-Boro-Pro], the hematopoiesis (hematopoiesis) is listed as “stimulated hematopoiesis”.

For `CC[C@H](C)[C@H](N)C(=O)N1CCC[C@H]1C(=O)N[C@H](C(=O)O)[C@@H](C)CC` [diprotin A], the “degradation of GRF in plasma to GRF[3-44]” value (GRF) is listed as “prevented”.

In the case of `CC(C)N1CCC(c2ccccc2)(c2ccccc2)CC1` [Prodipine, Pro-Pro-diphenyl-phosphonate], the cardiac allograft survival (cardiac allograft) is listed as “double cardiac allograft survival in rats from day 7 to day 14”.
